# Assay results from patent publication US20090318446A1, “4-(1H-Indol-3-yl)-Pyrimidin-2-Ylamine Derivatives and Their Use in Therapy” (Cyclacel Limited, priority 2005, published 2009).
# Experiments:
# [1] = target: CDK1/cyclin B (Homo sapiens, UniProt P06493); assay: Kinase assay CDK1/cyclin B; type: biochemical; settings: Table 2; read-out: Kinase inhibition IC50 CDK1B
# Experimental: (§1) The compounds from the examples above were investigated for their ability to inhibit the enzymatic activity of various protein kinases. This was achieved by measurement of incorporation of radioactive phosphate from ATP into appropriate polypeptide substrates. Recombinant protein kinases and kinase complexes were produced or obtained commercially. Assays were performed using 96-well plates and appropriate assay buffers (typically 25 mM β-glycerophosphate, 20 mM MOPS, 5 mM EGTA, 1 mM DTT, 1 mM […], pH 7.4), into which were added 2-4 μg of active enzyme with appropriate substrates. The reactions were initiated by addition of Mg/ATP mix (15 mM MgCl2+100 μM ATP with 30-50 kBq per well of [γ-^32P]-ATP) and mixtures incubated as required at 30° C. Reactions were stopped on ice, followed by filtration through p81 filterplates or GF/C filterplates (Whatman Polyfiltronics, Kent, UK). After washing 3 times with 75 mM aq orthophosphoric acid, plates were dried, scintillant added and incorporated radioactivity measured in a scintillation counter (TopCount, Packard Instruments, Pangbourne, Berks, UK). Compounds for kinase assay were made up as 10 mM stocks in DMSO and diluted into 10% DMSO in assay buffer. Data was analysed using curve-fitting software (GraphPad Prism version 3.00 for Windows, GraphPad Software, San Diego Calif. USA) to determine IC50 values (concentration of test compound which inhibits kinase activity by 50%).
# [2] = target: GSK-3β (Oryctolagus cuniculus, UniProt G1T8E2); assay: GSK-3β kinase assay; type: biochemical, rabbit; settings: Table 2; read-out: Kinase inhibition IC50 GSK3
# GSK-3β, sequence (G1T8E2 1-432): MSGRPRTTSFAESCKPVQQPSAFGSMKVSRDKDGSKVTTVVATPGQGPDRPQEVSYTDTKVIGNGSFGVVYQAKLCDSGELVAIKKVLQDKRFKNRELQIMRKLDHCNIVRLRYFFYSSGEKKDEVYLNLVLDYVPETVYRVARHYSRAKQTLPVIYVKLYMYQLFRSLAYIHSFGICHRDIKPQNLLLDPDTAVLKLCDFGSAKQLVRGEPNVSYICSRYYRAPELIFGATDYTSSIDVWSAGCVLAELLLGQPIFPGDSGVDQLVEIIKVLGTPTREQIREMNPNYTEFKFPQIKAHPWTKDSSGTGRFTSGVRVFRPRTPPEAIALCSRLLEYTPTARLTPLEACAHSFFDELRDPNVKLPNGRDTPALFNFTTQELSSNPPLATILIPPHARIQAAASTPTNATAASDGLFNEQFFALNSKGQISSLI
# Experimental: GSK-3 was obtained from New England Biolabs (UK) Ltd., Hitchin, Herts. The recombinant enzyme was isolated from a strain of E. coli that carries a clone expressing GSK-3β derived from a rabbit skeletal muscle cDNA library [Wang, Q. M.; Fiol, C. J.; DePaoli-Roach, A. A.; Roach, P. J. J. Biol. Chem., 1994, 269, 14566]. Inhibition of GSK-3 function was assessed by measurement of phosphorylation of CREB phosphopeptide KRREILSRRPphosphoSYR in the presence of test compounds. Using a 96-well assay format, GSK3 (7.5 U) was incubated for 30 min at 30° C. in a total volume of 25 μL in 20 mM MOPS pH 7.2, 25 mM β-glycerophosphate, 5 mM EGTA, 1 mM DTT, 1 mM […], 40 μM CREB peptide, 15 mM MgCl2 and 100 μM ATP (containing 0.25 μCi [γ-^32P]-ATP) in the presence of varying concentrations of test compound. The samples were transferred to 96-well p81 filter plates (Whatman Polyfiltronics, Kent, UK), and the plates were washed 4 times with 200 μL/well of 75 mM aq orthophosphoric acid. Scintillation liquid (50 μL) was added to each well, and incorporated radioactivity for each sample was determined using a scintillation counter (TopCount, Packard Instruments, Pangbourne, Berks, UK).
# [3] = target: Drosophila Aurora A (Drosophila melanogaster, UniProt Q9VGF9); assay: Aurora A kinase assay (Drosophila enzyme); type: biochemical; settings: Table 3, values marked *: Drosophila Aurora A; read-out: Kinase inhibition Aurora A (*Drosophila Aurora A)
# Drosophila Aurora A, sequence (Q9VGF9 entry or part of it): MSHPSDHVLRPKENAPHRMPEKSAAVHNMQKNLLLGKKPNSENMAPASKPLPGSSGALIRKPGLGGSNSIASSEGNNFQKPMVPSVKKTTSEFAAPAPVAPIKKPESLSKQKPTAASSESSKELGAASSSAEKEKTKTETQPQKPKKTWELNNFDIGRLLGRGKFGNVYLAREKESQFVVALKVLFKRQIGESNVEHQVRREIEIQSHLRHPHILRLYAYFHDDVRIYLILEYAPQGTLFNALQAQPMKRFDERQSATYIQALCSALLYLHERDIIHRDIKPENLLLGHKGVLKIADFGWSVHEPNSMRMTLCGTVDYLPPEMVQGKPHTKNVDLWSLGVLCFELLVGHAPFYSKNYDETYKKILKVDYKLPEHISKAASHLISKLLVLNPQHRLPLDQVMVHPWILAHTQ
# Experimental: as §1
# [4] = target: CDK2/cyclin A (Homo sapiens, UniProt P24941); assay: Kinase assay CDK2/cyclin A; type: biochemical; settings: Table 2; read-out: Kinase inhibition IC50 CDK2A
# Experimental: as §1
# CDK1/cyclin B, sequence (P06493 whole entry, species assumed): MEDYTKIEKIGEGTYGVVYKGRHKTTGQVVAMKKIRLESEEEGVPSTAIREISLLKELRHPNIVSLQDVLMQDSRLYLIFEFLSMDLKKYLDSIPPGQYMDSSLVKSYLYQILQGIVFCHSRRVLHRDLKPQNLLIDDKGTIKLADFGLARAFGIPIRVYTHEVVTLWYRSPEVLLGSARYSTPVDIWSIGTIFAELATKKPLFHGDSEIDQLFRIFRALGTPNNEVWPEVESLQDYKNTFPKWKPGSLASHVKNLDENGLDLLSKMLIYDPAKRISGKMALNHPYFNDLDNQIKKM
# CDK1/cyclin B, sequence (P14635 whole entry partner, species assumed): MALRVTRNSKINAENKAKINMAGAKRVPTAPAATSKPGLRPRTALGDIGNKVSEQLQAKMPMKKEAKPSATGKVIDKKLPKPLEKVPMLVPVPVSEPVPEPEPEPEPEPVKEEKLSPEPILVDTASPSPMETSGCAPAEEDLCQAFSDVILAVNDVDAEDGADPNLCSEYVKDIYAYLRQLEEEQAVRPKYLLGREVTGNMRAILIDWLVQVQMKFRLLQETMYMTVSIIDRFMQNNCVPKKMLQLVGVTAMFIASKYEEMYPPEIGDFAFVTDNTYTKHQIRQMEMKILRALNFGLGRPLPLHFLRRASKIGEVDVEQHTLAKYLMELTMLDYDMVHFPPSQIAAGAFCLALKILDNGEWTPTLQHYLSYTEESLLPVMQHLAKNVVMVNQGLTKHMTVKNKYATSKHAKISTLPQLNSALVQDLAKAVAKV
IC50 [1] [µM],IC50 [2] [µM],IC50 [3] [µM],IC50 [4] [µM],SMILES
> 100,2.1,0.274,> 100,"O=[N+]([O-])c1cccc(Nc2nccc(-c3c[nH]c4ccccc34)n2)c1 [Compound 2, [4-(1H-Indol-3-yl)-pyrimidin-2-yl]-(3-nitro-phenyl)-amine]"
> 100,8.7,1.05,> 100,"Fc1ccc(Nc2nccc(-c3c[nH]c4ccccc34)n2)cc1 [Compound 3, (4-Fluoro-phenyl)-[4-(1H-indol-3-yl)-pyrimidin-2-yl]-amine]"
1.9,1.6,0.243,2.6,"COc1ccc(Nc2nccc(-c3c[nH]c4ccccc34)n2)cn1 [Compound 4, [4-(1H-Indol-3-yl)-pyrimidin-2-yl]-(6-methoxy-pyridin-3-yl)-amine]"
